In paper PMC8343220, “The selectivity of α‐adrenoceptor agonists for the human α1A, α1B, and α1D‐adrenoceptors” (Pharmacology Research & Perspectives, 2021):
Like-named read-outs stand apart in the source and are kept apart here.

Key:
[1] = target: T1, human α1D‐adrenoceptor (full length) (Homo sapiens, UniProt P25100); assay: ^3H‐prazosin whole‐cell radioligand binding, CHO‐α1D cells; conditions: for 3H‐prazosin binding Log KD: whole‐cell binding (from Table 1), log values given negative; for Log KD α1D, ^3H‐prazosin whole cell binding: given as log KD (negative), mean ± SEM, 'early plateau' = specific binding not fully inhibited
T1 construct: human α1D‐adrenoceptor (full length) were used; expressed in transfected cells; host or cells: CHO-K1
T1 sequence (P25100 1-572): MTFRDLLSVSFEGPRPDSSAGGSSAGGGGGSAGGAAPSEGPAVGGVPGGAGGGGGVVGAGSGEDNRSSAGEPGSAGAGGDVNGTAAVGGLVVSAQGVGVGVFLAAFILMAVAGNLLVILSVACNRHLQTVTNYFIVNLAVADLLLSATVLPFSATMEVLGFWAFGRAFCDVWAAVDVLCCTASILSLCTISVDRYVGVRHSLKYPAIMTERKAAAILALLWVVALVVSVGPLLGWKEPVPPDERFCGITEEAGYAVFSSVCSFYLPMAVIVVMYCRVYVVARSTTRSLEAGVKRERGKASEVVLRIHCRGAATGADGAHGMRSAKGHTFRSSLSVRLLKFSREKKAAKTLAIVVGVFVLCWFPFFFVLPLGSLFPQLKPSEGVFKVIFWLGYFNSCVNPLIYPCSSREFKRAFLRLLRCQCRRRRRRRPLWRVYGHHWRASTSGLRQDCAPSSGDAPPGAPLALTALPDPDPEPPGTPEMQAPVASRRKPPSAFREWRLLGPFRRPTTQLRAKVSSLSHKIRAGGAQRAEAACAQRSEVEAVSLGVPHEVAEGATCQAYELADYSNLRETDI

human α1A‐adrenoceptor [2] = target: T2, human α1A‐adrenoceptor (Homo sapiens, UniProt P35348); assay: ^3H‐prazosin whole‐cell radioligand binding, CHO‐α1A cells; conditions: for Log KD α1A, ^3H‐prazosin whole cell binding: given as log KD (negative), mean ± SEM; for Affinity selectivity ratio α1A vs α1D: higher affinity for α1A than α1D
T2 construct: expressed in transfected cells; host or cells: CHO-K1
T2 sequence (P35348 1-466): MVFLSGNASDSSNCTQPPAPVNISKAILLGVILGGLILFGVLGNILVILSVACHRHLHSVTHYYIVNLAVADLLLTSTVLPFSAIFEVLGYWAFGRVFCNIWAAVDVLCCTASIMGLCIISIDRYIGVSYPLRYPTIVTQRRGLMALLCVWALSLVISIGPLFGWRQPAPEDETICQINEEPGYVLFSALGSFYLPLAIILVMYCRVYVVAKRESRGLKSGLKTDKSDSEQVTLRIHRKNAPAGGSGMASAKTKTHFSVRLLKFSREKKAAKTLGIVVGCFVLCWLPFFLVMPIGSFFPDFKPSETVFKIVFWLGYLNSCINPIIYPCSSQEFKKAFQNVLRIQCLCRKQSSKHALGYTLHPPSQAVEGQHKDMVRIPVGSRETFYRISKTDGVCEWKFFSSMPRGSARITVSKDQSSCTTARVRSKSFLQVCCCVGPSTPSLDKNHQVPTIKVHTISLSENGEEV

human α1A‐adrenoceptor [3] = target: T2, human α1A‐adrenoceptor; assay: Intracellular free calcium mobilization, CHO‐α1A cells; type: cell-based; conditions: for Intracellular calcium release % ionomycin at 10 µM: response at 10 μM ligand
[4] = target: T1, human α1D‐adrenoceptor (full length); assay: Intracellular free calcium mobilization, CHO‐α1D cells; type: cell-based; conditions: for Intracellular calcium release % ionomycin: maximal response as % of 10 µM ionomycin
human α1B‐adrenoceptor [5] = target: T3, human α1B‐adrenoceptor (Homo sapiens, UniProt P35368); assay: Intracellular free calcium mobilization, CHO‐α1B cells; type: cell-based; conditions: for Intracellular calcium release % ionomycin: maximal response as % of 10 µM ionomycin response
T3 construct: expressed in transfected cells; host or cells: CHO-K1
T3 sequence (P35368 1-520): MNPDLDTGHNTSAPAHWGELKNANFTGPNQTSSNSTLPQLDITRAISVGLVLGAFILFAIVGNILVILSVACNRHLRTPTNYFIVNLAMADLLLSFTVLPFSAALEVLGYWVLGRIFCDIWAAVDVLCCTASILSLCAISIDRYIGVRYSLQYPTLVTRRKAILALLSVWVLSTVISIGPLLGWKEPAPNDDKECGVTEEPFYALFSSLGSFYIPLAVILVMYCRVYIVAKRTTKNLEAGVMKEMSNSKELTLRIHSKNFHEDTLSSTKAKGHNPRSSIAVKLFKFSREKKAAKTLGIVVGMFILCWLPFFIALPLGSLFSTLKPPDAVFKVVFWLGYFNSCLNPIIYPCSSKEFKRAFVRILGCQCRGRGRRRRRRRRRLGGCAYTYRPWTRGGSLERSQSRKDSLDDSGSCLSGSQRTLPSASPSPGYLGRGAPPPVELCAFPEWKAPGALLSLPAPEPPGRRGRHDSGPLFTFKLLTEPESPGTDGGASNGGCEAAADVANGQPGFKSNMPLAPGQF

[6] = target: T1, human α1D‐adrenoceptor (full length); assay: ERK1/2‐phosphorylation (Surefire Alphascreen), CHO‐α1D cells; type: cell-based; conditions: for ERK1/2‐phosphorylation % PDBu at 10 µM: response at 10 µM ligand (no EC50 given)
[7] = test system: parental CHO cell line without any transfected receptors; assay: ERK1/2‐phosphorylation, parent CHO cells without transfected receptors; type: cell-based, Chinese hamster; conditions: for ERK1/2-phosphorylation % PDBu: maximal response as % of PDBu (10μM) response
human α1B‐adrenoceptor [8] = target: T3, human α1B‐adrenoceptor; assay: ^3H‐prazosin whole‐cell radioligand binding, CHO‐α1B cells; conditions: for Log KD α1B, ^3H‐prazosin whole cell binding: given as log KD (negative), mean ± SEM
human α1B‐adrenoceptor [9] = target: T3, human α1B‐adrenoceptor; assay: ERK1/2‐phosphorylation (Surefire Alphascreen), CHO‐α1B cells; type: cell-based
[10] = CHO cells without transfected receptors, mean ± s.e.m.
[11] = higher affinity for α1A than α1B
[12] = CHO‐α1D cells, log values given negative
[13] = CHO‐α1B cells, whole‐cell binding (from Table 1), given as log KD (negative numbers)
[14] = CHO‐α1D cells, maximal response as % of PDBu
[15] = CHO‐α1B cells, given as log EC50 (negative numbers)
[16] = higher affinity for α1D than α1B
[17] = CHO‐α1A cells, no EC50 obtained

Row | Compound | ERK1/2-phosphorylation % PDBu [7, 10] | 3H‐prazosin binding Log KD ([1]; CHO‐α1D cells) | Affinity selectivity ratio α1A vs α1B (human α1A‐adrenoceptor [2]; [11]) [fold] | Intracellular calcium release Log EC50 [4, 12] | Intracellular calcium release % ionomycin ([4]; CHO‐α1D cells) | Log KD, ^3H‐prazosin binding (human α1B‐adrenoceptor [8]; [13]) | Log KD α1B, ^3H‐prazosin whole cell binding (human α1B‐adrenoceptor [8]; CHO‐α1B cells) | ERK1/2‐phosphorylation Log EC50 [6, 12] | ERK1/2‐phosphorylation % PDBu [6, 14] | Log KD α1D, ^3H‐prazosin whole cell binding ([1]; CHO‐α1D cells) | Log KD α1A, ^3H‐prazosin whole cell binding (human α1A‐adrenoceptor [2]; CHO‐α1A cells) | ERK1/2-phosphorylation Log EC50 [7, 10] | other results
1 | Cc1ccc(/N=C/N(C)/C=N/c2ccc(C)cc2C)c(C)c1 [Amitraz] | No response | – | – | – | – | – | – | – | – | – | – | – | Affinity selectivity ratio α1B vs α1D [1]: >12.0 fold; Affinity selectivity ratio α1A vs α1B (human α1A‐adrenoceptor [2]): >33.1 fold; Intracellular calcium release Log EC50 (human α1A‐adrenoceptor [3]): No response; Intracellular calcium release Log EC50 [4]: No response; Intracellular calcium release Log EC50 (human α1B‐adrenoceptor [5]): No response; ERK1/2‐phosphorylation % PDBu [6]: No response; ERK1/2‐phosphorylation Log EC50 [6]: No response; ERK1/2-phosphorylation Log EC50 [7]: No response
2 | CCN1CCc2nc(N)oc2CC1 [BHT933] | – | −3.70 | >4.0 | No response | No response | No binding | No binding | No response | No response | – | – | – | Log KD α1D (apparent), ^3H‐prazosin whole cell binding ([1]; CHO‐α1D cells, apparent KD: maximum concentration did not inhibit all specific binding, IC50 extrapolated): −3.70 ± 0.18^apparent; Affinity selectivity ratio α1A vs α1D ([1]; higher affinity for α1D than α1A): 1.3 fold; Log KD α1A (apparent), ^3H‐prazosin whole cell binding (human α1A‐adrenoceptor [2]; CHO‐α1A cells, apparent KD: maximum concentration did not inhibit all specific binding, IC50 extrapolated): −3.60 ± 0.06^apparent; Intracellular calcium release % Ionomycin at 100 µM (human α1A‐adrenoceptor [3]; CHO‐α1A cells, response at 100 μM ligand, no EC50 obtained): 25.5 ± 3.7%; Intracellular calcium release % Ionomycin at 100 µM (human α1B‐adrenoceptor [5]; CHO‐α1B cells, response at 100 µM ligand (no EC50 given), % of ionomycin response): 16.6 ± 2.1%
3 | CN[C@@H](C)[C@H](O)c1ccccc1 [Epdedrine] | – | – | – | – | – | – | – | – | – | – | – | – | ERK1/2‐phosphorylation % PDBu (human α1B‐adrenoceptor [9]): 19.1 ± 4.0%; ERK1/2‐phosphorylation Log EC50 (human α1B‐adrenoceptor [9]): −4.67 ± 0.17; Intracellular calcium release % Ionomycin at 100 µM (human α1B‐adrenoceptor [5]): 18.5 ± 2.9%
4 | C[C@](N)(Cc1ccc(O)c(O)c1)C(=O)O [Methyldopa] | No response | – | – | No response | No response | No binding | No binding | No response | No response | No binding | No binding | No response | IC50 ([1]; CHO‐α1D cells, whole‐cell binding, given as IC50 > log value): > 100 µM; Intracellular calcium release Log EC50 (human α1A‐adrenoceptor [3]; CHO‐α1A cells, given as log EC50 (negative)): No response; Intracellular calcium release % ionomycin (human α1A‐adrenoceptor [3]; CHO‐α1A cells, maximal response as % of 10 µM ionomycin): No response; Intracellular calcium release Log EC50 (human α1B‐adrenoceptor [5]; [15]): No response; Intracellular calcium release % ionomycin (human α1B‐adrenoceptor [5]; CHO‐α1B cells): No response
5 | CCCC(=O)O[C@@H]1[C@@H](C)[C@@]2(O)[C@@H](C=C(CO)C[C@]3(O)C(=O)C(C)=C[C@@H]23)[C@@H]2C(C)(C)[C@]12OC(=O)CCC [PDBu, Phorbol 12,13‐dibutyrate] | – | – | – | – | – | – | – | – | – | – | – | – | ERK1/2‐phosphorylation response fold over basal [7]: 7.5 ± 0.9 fold over basal
6 | C1=C(c2cnc[nH]2)c2ccsc2CC1 [RWJ52353] | No response | −4.30 | >190 | No response | No response | – | – | No response | No response | −4.30 ± 0.12 | −5.28 ± 0.08 | No response | Affinity selectivity ratio α1B vs α1D [1, 16]: >20 fold; Affinity selectivity ratio α1A vs α1D (human α1A‐adrenoceptor [2]): 9.6 fold; Intracellular calcium release % ionomycin at 10 µM (human α1A‐adrenoceptor [3]; [17]): 39.4 ± 2.4%; Log IC50 α1B, ^3H‐prazosin whole cell binding (human α1B‐adrenoceptor [8]; CHO‐α1B cells, printed as IC50> log value): IC50 >−3; Intracellular calcium release % ionomycin at 10 µM (human α1B‐adrenoceptor [5]; CHO‐α1B cells, response at 10 µM ligand (no EC50 given), % of ionomycin response): 8.1 ± 3.1%
7 | c1ccc2c(c1)CCCC2C1=NCCN1 (stereo not shown) [Tetrohydrozoline] | – | – | – | – | – | – | – | – | – | – | – | – | ERK1/2‐phosphorylation % PDBu (human α1B‐adrenoceptor [9]): No response; ERK1/2‐phosphorylation Log EC50 (human α1B‐adrenoceptor [9]): No response; Log KD, ^3H‐prazosin binding (human α1B‐adrenoceptor [8]): −5.22; Intracellular calcium release % Ionomycin at 100 µM (human α1B‐adrenoceptor [5]): 2.9 ± 1.4%
8 | Cc1sc(C)c2c1CCC=C2c1cnc[nH]1.O=C(O)/C=C\C(=O)O [T‐CG 1000] | – | −5.91 | 6.0 | No response | No response | −5.18 | −5.18 ± 0.06 | – | – | −5.91 ± 0.12 | −5.96 ± 0.05 | – | Affinity selectivity ratio α1B vs α1D [1, 16]: 5.4 fold; Affinity selectivity ratio α1A vs α1D (human α1A‐adrenoceptor [2]): 1.1 fold; Intracellular calcium release % ionomycin at 10 µM (human α1A‐adrenoceptor [3]; [17]): 21.0 ± 1.9%; Intracellular calcium release Log EC50 (human α1B‐adrenoceptor [5]; [15]): No response; Intracellular calcium release % ionomycin (human α1B‐adrenoceptor [5]; CHO‐α1B cells): No response; ERK1/2‐phosphorylation % PDBu at 10 µM ([6]; CHO‐α1D cells): 16.3 ± 5.9%
9 | O=C1Cc2cc(CCN3CCN(c4nsc5ccccc45)CC3)c(Cl)cc2N1 [Ziprasidone] | – | – | – | No response | No response | – | – | – | – | – | – | – | ERK1/2‐phosphorylation % PDBu at 10 µM ([6]; CHO‐α1D cells): 4.6 ± 2.7%
10 | O=C1Cc2cc(CCN3CCN(c4nsc5ccccc45)CC3)c(Cl)cc2N1 [ziprasidone] | No response | – | – | – | – | – | – | – | – | – | – | No response | –
